In patent US20070009956A1 (Council of Scientific and Industrial Research, priority 2003, published 2007):
Changes are numbered by the printed parent chain. Entries after “also recorded” stand apart in the source; their conditions may differ. Counter-ions that a name gives are not always drawn.

What was measured:
α-crystallin [1] = biological target: T1, α-crystallin (Bos taurus, UniProt P02470+P02510); assay: Circular dichroism spectra; set-up: species or system calf
T1 construct: α-Crystallin was purified from calf eye lenses previously described (24); from tissue; host or cells: calf eye lenses
T1 sequence (P02470 1-173): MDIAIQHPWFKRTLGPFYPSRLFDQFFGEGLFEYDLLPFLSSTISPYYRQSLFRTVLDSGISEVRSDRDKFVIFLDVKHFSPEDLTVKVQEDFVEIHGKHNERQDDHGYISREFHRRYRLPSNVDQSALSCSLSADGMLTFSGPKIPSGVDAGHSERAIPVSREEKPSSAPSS
T1 sequence (P02510 1-175): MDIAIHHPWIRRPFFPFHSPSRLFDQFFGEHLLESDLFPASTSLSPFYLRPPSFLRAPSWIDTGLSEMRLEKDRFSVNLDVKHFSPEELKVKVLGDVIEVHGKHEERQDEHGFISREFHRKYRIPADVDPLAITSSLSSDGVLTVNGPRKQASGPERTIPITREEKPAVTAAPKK
Experimental: Circular dichroism spectra were recorded using a Jasco J-715 Spectropolarimeter. All spectra are the average of 4 accumulations.

insulin = assay: DTT-induced aggregation of insulin without α-crystallin; type: biochemical; conditions: 37° C., no α-crystallin
Experimental: (§1) All chaperone assays were carried out in 10 mM phosphate buffer. pH 7.4, containing 100 mM NaCl (Buffer A). […] Insulin (0.2 mg/ml) was then added and reduction of insulin was initiated by adding 20 ρL of 1 M DTT to 1.2 ml of the sample. The extent of aggregation of insulin was measured as a function of time by monitoring 90° scattering at 465 nm using a Hitachi F-4000 fluorescence spectrophotometer. The excitation and emission band passes were set at 3 nm.

α-crystallin [2] = biological target: T1, α-crystallin; assay: Intrinsic tryptophan fluorescence; set-up: species or system calf; conditions: 37° C., in the presence of Arg.HCl
Experimental: Fluorescence spectra were recorded using a Hitachi F-4000 Fluorescence Spectrophotometerequipped with a thermostated cuvette holder. All the studies were performed at 37° C. All spectra were recorded in the corrected spectrum mode. The nirinsic tryptophan fluorescence spectra of α-crystllin (0.2 mg/ml) in Buffer A alone or in the buffer containing the required concentrations of Arg.HCl were recorded by exciting the sample at 295 nm with the excitation and emission band passes set at 3 nm.

[3] = biological target: T2, recombinant human αA-crystallin (Homo sapiens, UniProt P02489); assay: DTT-induced aggregation of insulin, chaperone-like activity of αA-crystallin; type: biochemical; conditions: 37° C., 1:2 (w/w) to insulin
T2 construct: made in house; host or cells: Escherichia coli
T2 sequence (P02489 1-173): T1 sequence (P02470 1-173) with I3V, A4T, E91D, S142C, P147Q, S148T, V150L, G153T, S155A, S168T
Experimental: as §1

α-crystallin [4] = biological target: T1, α-crystallin; assay: Glycerol gradient sedimentation; set-up: species or system calf
Experimental: Glycerol gradient centrifugation was carried out essentially as described by Lambert et al. (43). α-Crystallin, α-A- or α-B-crystallin (2 mg/ml) was incubated in 50 mM Tris HCl buffer (pH 7.4) containing 100 mM NaCl, 1 mM EDTA alone or in the presence of 300 mM Arg.HCl for 2 hours at 37° C. The samples (0.5 ml) were loaded on top of a 12 ml linear grddient of glycerol (10-40%) made in 50 mM Tris-HCl buffer, pH 7.4, containing 100 mM NaCl and 1 mM EDTA. Arg.HCl-treated α-crystllin samples were run in the gradient also containing 300 mM Arg.HCl. The tubes were centriflged for 18 hours at 30000 rpm in a Beckman SW41 rotor at 4° C. Fractions (0.3 ml) were withdrawn from the top using a Haake-Buchler Auto Densi-Flowt HC gradient former/remover and optical density at 280 nm of the fractions were measured using a Shimadzu W-1601 spectrophotometer. To estimate the molecular masses of the α-crystallin samples, proteins with defined molecular masses such as thyroglobulin (669 kDa), catalase (240 kDa) and aldolase (158 kDa) were used.

α-crystallin [5] = biological target: T1, α-crystallin; assay: Thermally induced aggregation of ξ-crystallin at 43° C., chaperone activity of α-crystallin; type: biochemical, calf; conditions: 1:4 (w/w) α- to ξ-crystallin, preincubation with 100 mM Arg.HCl, 53% without
Experimental: Chaperone activity measurement of α-crystallin towards the thermal aggregation of ε-crystallin was performed as described in our earlier study (25). Buffer A either in the absence or in the presence of α-crystallin (0.025 mg/ml) and required concentrations of Arg.HCl was incubated at 43° C. for 3 min in the thermostated cuvette holder of the fluorescence spectrophotometer. ε-Crystallin was then added to a final concentration of 0.1 mg/mL The extent of aggregation was monitored as a function of time by measring the scalr of 465 nm light as descnbed above, […]

α-crystallin [6] = biological target: T1, α-crystallin; assay: ANS binding fluorescence; set-up: species or system calf; conditions: 37° C., 100 mM Arg.HCl
Experimental: To study the binding of the hydrophobic probe, ANS, to α-crystallin, 12 uL of 10 mM methanolic solution of ANS was added to 1.2 ml of a 0.5 mg/ml solution of α-crystallin in Buffer A alone or in the buffer containing the required concentrations of Arg.HCl. The samples were excited at 365 nm and emission spectra recorded from 400-600 nm at 37° C. […] All spectra were corrected for the respective blanks. Spectra were recorded in the corrected spectrum mode.

R120G αB-crystallin = biological target: T3, R120G αB-crystallin (Homo sapiens, UniProt P02511, R120G); type: biochemical; conditions: 37° C., 0.5:1 ratio to insulin, 300 mM Arg.HCl; negative protection without
T3 sequence (P02511 1-175 R120G): T1 sequence (P02510 1-175) with A40T, I61F, R120G, A132T, A152V
Experimental: as §1

[7] = biological target: T4, recombinant human αB-crystallin (Homo sapiens, UniProt P02511); assay: DTT-induced aggregation of insulin, chaperone-like activity of αB-crystallin; type: biochemical; conditions: 37° C., 1:4 (w/w) to insulin
T4 construct: made in house; host or cells: Escherichia coli
T4 sequence (P02511 1-175): T1 sequence (P02510 1-175) with A40T, I61F, A132T, A152V
Experimental: as §1

[8] = biological target: T5, calf eye lens α-crystallin (Bos taurus, UniProt P02470+P02510); assay: DTT-induced aggregation of insulin, chaperone-like activity of α-crystallin; conditions: for protection offered by α-crystallin: 25° C., α-crystallin to insulin 1:1 (w/w); for effect on the chaperone-like activity of α-crystallin: α-crystallin 0.1 mg/ml, insulin 0.2 mg/ml; for percent protection offered by α-crystallin: 36% in the absence of Lys.HCl
T5 sequence (P02470 1-173): T1 sequence (P02470 1-173)
T5 sequence (P02510 1-175): T1 sequence (P02510 1-175)
Experimental: as §1

R116C αA-crystallin = biological target: T6, R116C αA-crystallin (Homo sapiens, UniProt P02489, R116C); type: biochemical; conditions: 500 mM, data not shown
T6 sequence (P02489 1-173 R116C): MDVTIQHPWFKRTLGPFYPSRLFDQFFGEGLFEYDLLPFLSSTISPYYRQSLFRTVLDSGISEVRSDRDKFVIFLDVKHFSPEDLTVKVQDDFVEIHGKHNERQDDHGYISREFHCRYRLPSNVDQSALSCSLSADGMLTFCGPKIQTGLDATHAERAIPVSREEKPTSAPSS

Hsp 16.3 = Hsp 16.3 (Mycobacterium tuberculosis, UniProt P9WMK1); conditions: Gdn.HCl-induced perturbation of structure; cited from earlier work
α-crystallin [9] = biological target: T7, α-crystallin (Homo sapiens, UniProt P02489+P02511); conditions: 0.8-1.0 M Gdn.HCl; cited from earlier work
T7 sequence (P02489 1-173): T6 sequence (P02489 1-173 R116C) with C116R
T7 sequence (P02511 1-175): T1 sequence (P02510 1-175) with A40T, I61F, A132T, A152V

diabetic rats = conditions: rat, in vivo; cited from earlier work
Shumiya cataract rats = conditions: fed orally; cited from earlier work

Hsp 16.3, sequence (P9WMK1 whole entry): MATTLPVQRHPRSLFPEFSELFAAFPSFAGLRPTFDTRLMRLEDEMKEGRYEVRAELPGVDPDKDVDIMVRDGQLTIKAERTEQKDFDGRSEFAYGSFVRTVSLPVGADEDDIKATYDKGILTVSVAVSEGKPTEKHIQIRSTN

## Cl.N=C(N)NCCCC(N)C(=O)O (racemic) [DL-Arg.HCl, DLarginine hydrochloride]
α-crystallin [1]; 37° C., DL-Arg.HCl
  far-UV CD spectra, secondary structure of α-crystallin: is not altered

## Cl.N=C(N)NCCC[C@H](N)C(=O)O [Arg.HCl, Arginine hydrochloride]
insulin
  aggregation of insulin, additive alone: significantly increased aggregation
α-crystallin [2]
  intrinsic tryptophan fluorescence spectrum of α-crystallin: did not change considerably
[3]
  effect on the chaperone-like activity of αA-crystallin: enhanced the activity
α-crystallin [4]; 300 mM Arg.HCl, 8.75 in the absence
  half-width of the sedimentation profile of α-crystallin: 6.25 x-axis units
α-crystallin [4]; 300 mM Arg.HCl, ~700 kDa in the absence
  molecular mass of α-crystallin: ~360 kDa
α-crystallin [5]
  protective ability of α-crystallin against aggregation of ξ-crystallin: ~81%
α-crystallin [6]
  increase in the fluorescence intensity of ANS at the emission maximum: ~38%
R120G αB-crystallin
  extent of protection by R120G αB-crystallin: ~75%
[7]
  effect on the chaperone-like activity of αB-crystallin: enhanced the activity
[8]; 100 mM Arg.HCl, approximately 13% without
  protection offered by α-crystallin: 28%
[8]; 300 mM Arg.HCl
  protection offered by α-crystallin: almost completely prevented
[8]; 37° C., 1:2 (w/w) α-crystallin:insulin, 200 mM Arg.HCl, ~36% without additive
  prevention of aggregation of insulin by α-crystallin: completely
[8]; 37° C.
  effect on the chaperone-like activity of α-crystallin: comparable
α-crystallin [1]; 37° C., 100, 200, 300 mM Arg.HCl, region 270-290 nm
  near-UV CD spectra of α-crystallin: subtle conformational changes at the tertiary structural level
R116C αA-crystallin
  effect on the activity of R116C αA-crystallin: did not enhance

## N=C(N)N [Gdn.HCl, guanidine hydrochloride]
Hsp 16.3
  chaperone-like activity of Hsp 16.3: enhanced
[8]; 37° C., hydrochloride
  effect on the chaperone-like activity of α-crystallin: comparable
α-crystallin [9]
  chaperone-like activity of α-crystallin: enhancement in its chaperone-like activity

## Cl.NCCCC[C@H](N)C(=O)O [Lys.HCl, Lysine hydrochloride]
α-crystallin [4]; data not shown
  size of α-crystallin in the presence of Lys.HCl: change in the near-UV CD spectrum and size
[8]; 37° C., 100 mM Lys.HCl
  percent protection offered by α-crystallin: 17%
[8]; 37° C., 300 mM Lys.HCl
  percent protection offered by α-crystallin: about 8%
[8]; 37° C., hydrochloride
  effect on the chaperone-like activity of α-crystallin: did not enhance; also recorded: decreased the activity
α-crystallin [1]; data not shown
  near-UV CD spectrum of α-crystallin in the presence of Lys.HCl: change in the near-UV CD spectrum

## N=C(N)NN [aminoguanidine]
Diabetic rats
  cataract formation: inhibit cataract formation
Shumiya cataract rats
  opacification of the lens: inhibited the opacification of the lens
